Reference: EP4800014A1 (Tuojie Biotech (Shanghai) Co., Ltd., priority 2023, dated 2025)

Tests used:
[1] = test system: Ovarian cancer cells OVCAR3; assay: Inhibitory activity against ovarian cancer cells (OVCAR3), CellTiter-Glo cell viability; type: cell-based; conditions: for IC50: Homo sapiens, OVCAR-3, 120 h, OVCAR3 cells, 2500 cells/well, 5 days with compound, highest concentration 10 µM, Celltiter Glo; for inhibitory activity against OVCAR3 tumor cells compared with Janssen-01: comparison in words with the disclosed compound Janssen-01
Protocol: Test Example 1. Assay for Inhibitory Activity of Compounds of Present Disclosure Against Ovarian Cancer Cells (OVCAR3)
Ovarian cancer cells OVCAR3 (source: Nanjing Cobioer Biosciences Co., Ltd.) were cultured in an RPMI 1640 culture medium supplemented with 10% FBS in a cell incubator at 37 °C with 5% CO2. On day one, the cells were plated in a 96-well plate at a cell concentration of 2500 cells/well and cultured overnight in an incubator. On day two, the cells were treated with compounds. The highest compound concentration was 10 µM and was diluted 3-fold to obtain 9 concentrations, and the final concentration of DMSO was 0.1%. After the cells were cultured in the incubator for another 5 days, the cell viability was measured using a Celltiter Glo assay kit (Promega) by a method consistent with that provided by the kit. Data were processed using GraphPad Prism 8, and IC50 was calculated. [formula] X: the logarithm of the compound concentration; Y: % inhibition; Bottom: bottom; Top: top; HillSlope: Hill slope. Table 2. The IC50 (nM) of the compounds of the present disclosure against OVCAR3

CDK6/CyclinD3 = CDK6/CyclinD3 (Homo sapiens, UniProt Q00534); assay: ADP-Glo kinase assay, CDK6; type: biochemical; conditions: 15.7 nM CDK6/CyclinD3, 200 µM ATP (Km), 0.1 mg/mL histone H1, 60 min; read-out: inhibitory activity (IC50, nM) CDK 6
Protocol: (§1) An ADP-Glo kinase assay was used for testing the activity of CDKs. The compounds were diluted in 384-well plates using Echo. The starting concentration was 10 µM and was diluted 3-fold to obtain 10 concentration points, and each concentration was tested in duplicate. The final concentration of DMSO in the assay system was 1%. CDK solutions (final concentrations: 16.5 nM CDK1/CyclinB, 1 nM CDK2/CyclinE1, 16.3 nM CDK4/CyclinD1, 15.7 nM CDK6/CyclinD3, 80 nM CDK7/Cyclin H/MAT1, and 15.3 nM CDK9/Cyclin T1) prepared with assay buffer were added at 2.5 µL, and the enzymes and compounds were pre-incubated at room temperature for 10 min. […] After thorough mixing, the plates were incubated at room temperature (for 120 min for CDK1/4/9 and for 60 min for CDK2/6/7). 4 µL of the ADP-Glo reagent was added, and the plates were incubated at room temperature for 40 min. 8 µL of the kinase assay reagent was added, and the plates were incubated at room temperature for 40 min. Readings were taken using an Envision multimode microplate reader. Data were processed using GraphPad Prism 8, and IC50 was calculated. [formula] X: the logarithm of the compound concentration; Y: % inhibition; Bottom: bottom; Top: top; HillSlope: Hill slope. Table 3. The inhibitory activity (IC50, nM) of the compounds of the present disclosure against CDKs

CDK4/CyclinD1 = CDK4/CyclinD1 (Homo sapiens, UniProt P11802); assay: ADP-Glo kinase assay, CDK4; type: biochemical; conditions: 16.3 nM CDK4/CyclinD1, 200 µM ATP (Km), 0.2 mg/mL DYRKtide, 120 min; read-out: inhibitory activity (IC50, nM) CDK4
Protocol: as §1

CDK2/CyclinE1 = CDK2/CyclinE1 (Homo sapiens, UniProt P24941); assay: ADP-Glo kinase assay, CDK2; type: biochemical; conditions: 1 nM CDK2/CyclinE1, 15 µM ATP (Km), 0.1 mg/mL histone H1, 60 min; read-out: inhibitory activity (IC50, nM) CDK2
Protocol: as §1

CDK1/CyclinB = CDK1/CyclinB (Homo sapiens, UniProt P06493); assay: ADP-Glo kinase assay, CDK1; type: biochemical; conditions: 16.5 nM CDK1/CyclinB, 20 µM ATP (Km), 0.1 mg/mL histone H1, 120 min; read-out: inhibitory activity (IC50, nM) CDK1
Protocol: as §1

CDK9/Cyclin T1 = CDK9/Cyclin T1 (Homo sapiens, UniProt P50750); assay: ADP-Glo kinase assay, CDK9; type: biochemical; conditions: 15.3 nM CDK9/Cyclin T1, 60 µM ATP (Km), 0.2 mg/mL PDKtide, 120 min; read-out: inhibitory activity (IC50, nM) CDK9
Protocol: as §1

CDK7/Cyclin H/MAT1 = CDK7/Cyclin H/MAT1 (Homo sapiens, UniProt P50613); assay: ADP-Glo kinase assay, CDK7; type: biochemical; conditions: 80 nM CDK7/Cyclin H/MAT1, 70 µM ATP (Km), 0.2 mg/mL MBP, 60 min; read-out: inhibitory activity (IC50, nM) CDK7
Protocol: as §1

Sequence of CDK7/Cyclin H/MAT1 (P50613 whole entry, species assumed): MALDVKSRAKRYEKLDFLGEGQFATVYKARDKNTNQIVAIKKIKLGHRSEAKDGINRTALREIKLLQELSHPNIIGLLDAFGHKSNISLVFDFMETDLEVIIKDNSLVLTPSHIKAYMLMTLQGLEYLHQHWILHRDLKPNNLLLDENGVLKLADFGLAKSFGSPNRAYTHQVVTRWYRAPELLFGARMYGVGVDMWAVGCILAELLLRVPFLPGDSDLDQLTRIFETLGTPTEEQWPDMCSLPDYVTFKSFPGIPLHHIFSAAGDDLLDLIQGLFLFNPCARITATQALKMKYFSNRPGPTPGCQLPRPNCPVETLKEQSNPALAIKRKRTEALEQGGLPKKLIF
Sequence of CDK7/Cyclin H/MAT1 (P51946 whole entry partner, species assumed): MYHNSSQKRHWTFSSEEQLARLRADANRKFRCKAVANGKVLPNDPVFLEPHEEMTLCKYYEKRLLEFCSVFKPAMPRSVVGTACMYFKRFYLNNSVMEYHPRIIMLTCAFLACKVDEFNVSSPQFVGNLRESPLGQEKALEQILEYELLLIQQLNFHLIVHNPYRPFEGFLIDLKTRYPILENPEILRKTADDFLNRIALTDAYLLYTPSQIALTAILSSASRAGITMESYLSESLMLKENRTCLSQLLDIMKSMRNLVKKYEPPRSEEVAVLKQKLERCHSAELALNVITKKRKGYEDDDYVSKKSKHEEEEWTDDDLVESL
Sequence of CDK7/Cyclin H/MAT1 (P51948 whole entry partner, species assumed): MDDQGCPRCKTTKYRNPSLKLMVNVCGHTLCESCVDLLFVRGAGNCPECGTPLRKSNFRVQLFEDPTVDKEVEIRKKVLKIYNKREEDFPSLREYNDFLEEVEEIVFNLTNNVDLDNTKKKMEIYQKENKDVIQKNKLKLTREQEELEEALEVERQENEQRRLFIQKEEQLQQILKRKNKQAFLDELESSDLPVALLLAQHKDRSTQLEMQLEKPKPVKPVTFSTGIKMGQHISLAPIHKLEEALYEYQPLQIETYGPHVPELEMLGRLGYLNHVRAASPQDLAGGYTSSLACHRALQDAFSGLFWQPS
Sequence of CDK1/CyclinB (P06493 whole entry, species assumed): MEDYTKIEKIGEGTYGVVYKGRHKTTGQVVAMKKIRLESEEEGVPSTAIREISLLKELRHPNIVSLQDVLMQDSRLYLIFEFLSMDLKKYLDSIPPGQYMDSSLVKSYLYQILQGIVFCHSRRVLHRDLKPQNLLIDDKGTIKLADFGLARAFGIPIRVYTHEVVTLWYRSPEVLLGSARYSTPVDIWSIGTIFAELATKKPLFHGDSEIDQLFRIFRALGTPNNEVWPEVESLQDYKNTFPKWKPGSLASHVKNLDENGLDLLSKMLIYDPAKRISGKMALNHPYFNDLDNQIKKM
Sequence of CDK1/CyclinB (P14635 whole entry partner, species assumed): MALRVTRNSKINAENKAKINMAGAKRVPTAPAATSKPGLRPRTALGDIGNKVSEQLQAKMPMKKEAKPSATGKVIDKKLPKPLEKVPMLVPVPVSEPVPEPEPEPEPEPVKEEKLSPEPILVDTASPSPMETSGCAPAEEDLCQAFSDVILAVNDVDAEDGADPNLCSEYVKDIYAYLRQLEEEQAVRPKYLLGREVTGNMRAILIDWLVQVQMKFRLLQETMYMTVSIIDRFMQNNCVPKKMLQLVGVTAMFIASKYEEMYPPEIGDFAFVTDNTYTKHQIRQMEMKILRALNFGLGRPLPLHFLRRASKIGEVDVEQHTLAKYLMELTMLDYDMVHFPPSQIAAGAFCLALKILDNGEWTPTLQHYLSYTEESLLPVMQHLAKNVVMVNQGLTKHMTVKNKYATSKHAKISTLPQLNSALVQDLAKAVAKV
Sequence of CDK9/Cyclin T1 (P50750 whole entry, species assumed): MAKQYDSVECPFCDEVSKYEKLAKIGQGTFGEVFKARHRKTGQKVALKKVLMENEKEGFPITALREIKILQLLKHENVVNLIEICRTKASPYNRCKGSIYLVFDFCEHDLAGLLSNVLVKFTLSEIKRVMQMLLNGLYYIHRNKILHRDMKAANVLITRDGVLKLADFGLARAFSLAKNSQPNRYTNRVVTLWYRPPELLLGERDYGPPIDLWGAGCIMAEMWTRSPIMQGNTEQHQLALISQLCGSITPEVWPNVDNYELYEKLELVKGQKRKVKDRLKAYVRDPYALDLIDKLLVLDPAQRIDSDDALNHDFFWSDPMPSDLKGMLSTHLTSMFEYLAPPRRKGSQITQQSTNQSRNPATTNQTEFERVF
Sequence of CDK9/Cyclin T1 (O60563 whole entry partner, species assumed): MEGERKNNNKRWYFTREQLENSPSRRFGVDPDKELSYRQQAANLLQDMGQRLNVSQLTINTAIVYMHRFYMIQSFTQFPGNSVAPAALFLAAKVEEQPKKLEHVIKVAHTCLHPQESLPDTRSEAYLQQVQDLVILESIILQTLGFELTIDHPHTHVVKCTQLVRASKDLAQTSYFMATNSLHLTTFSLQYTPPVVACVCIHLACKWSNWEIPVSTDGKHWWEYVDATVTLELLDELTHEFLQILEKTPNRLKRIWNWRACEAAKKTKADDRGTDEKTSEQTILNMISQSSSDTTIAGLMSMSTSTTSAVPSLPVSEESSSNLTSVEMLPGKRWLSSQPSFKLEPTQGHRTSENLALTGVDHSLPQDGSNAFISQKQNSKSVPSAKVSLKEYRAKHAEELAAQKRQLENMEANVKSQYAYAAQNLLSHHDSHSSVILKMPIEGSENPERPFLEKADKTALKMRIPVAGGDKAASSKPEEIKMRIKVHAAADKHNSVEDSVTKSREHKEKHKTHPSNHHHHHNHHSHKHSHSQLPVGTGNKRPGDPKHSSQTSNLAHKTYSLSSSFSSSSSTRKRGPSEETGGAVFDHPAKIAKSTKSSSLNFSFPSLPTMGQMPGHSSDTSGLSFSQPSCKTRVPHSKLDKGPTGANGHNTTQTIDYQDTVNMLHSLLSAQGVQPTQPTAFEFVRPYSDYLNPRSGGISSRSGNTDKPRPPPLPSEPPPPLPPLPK
Sequence of CDK4/CyclinD1 (P11802 whole entry, species assumed): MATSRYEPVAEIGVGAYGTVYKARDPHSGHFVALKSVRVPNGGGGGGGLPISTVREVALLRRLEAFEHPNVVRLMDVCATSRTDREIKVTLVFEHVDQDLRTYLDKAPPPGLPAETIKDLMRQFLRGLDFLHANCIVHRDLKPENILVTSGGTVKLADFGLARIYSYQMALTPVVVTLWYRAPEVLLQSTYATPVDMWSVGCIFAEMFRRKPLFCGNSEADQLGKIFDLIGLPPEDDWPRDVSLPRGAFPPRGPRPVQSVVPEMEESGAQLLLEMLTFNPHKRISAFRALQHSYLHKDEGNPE
Sequence of CDK4/CyclinD1 (P24385 whole entry partner, species assumed): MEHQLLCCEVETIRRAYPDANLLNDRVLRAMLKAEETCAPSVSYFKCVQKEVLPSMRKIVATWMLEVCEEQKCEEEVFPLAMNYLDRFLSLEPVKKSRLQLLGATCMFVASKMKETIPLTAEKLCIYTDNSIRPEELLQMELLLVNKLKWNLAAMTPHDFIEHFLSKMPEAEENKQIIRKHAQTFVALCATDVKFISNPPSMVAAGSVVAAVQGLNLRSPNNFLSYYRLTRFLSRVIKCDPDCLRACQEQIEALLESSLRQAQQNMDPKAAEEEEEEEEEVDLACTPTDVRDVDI
Sequence of CDK6/CyclinD3 (Q00534 whole entry, species assumed): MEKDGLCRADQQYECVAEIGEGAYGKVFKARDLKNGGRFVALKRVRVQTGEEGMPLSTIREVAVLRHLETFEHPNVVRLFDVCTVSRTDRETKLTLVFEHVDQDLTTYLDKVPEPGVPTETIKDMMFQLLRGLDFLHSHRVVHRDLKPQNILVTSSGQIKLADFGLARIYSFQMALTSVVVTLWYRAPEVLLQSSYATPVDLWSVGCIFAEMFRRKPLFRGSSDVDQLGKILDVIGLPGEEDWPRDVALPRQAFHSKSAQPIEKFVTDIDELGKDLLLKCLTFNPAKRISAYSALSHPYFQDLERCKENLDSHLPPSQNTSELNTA
Sequence of CDK6/CyclinD3 (P30281 whole entry partner, species assumed): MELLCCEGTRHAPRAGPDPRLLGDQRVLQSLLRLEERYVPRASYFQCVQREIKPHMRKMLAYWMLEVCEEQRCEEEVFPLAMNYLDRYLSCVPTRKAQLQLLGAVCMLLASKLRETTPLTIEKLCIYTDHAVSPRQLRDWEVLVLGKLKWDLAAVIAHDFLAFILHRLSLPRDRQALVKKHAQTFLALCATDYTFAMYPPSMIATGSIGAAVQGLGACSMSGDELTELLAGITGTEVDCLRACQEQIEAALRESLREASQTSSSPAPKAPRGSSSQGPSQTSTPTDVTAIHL

Structure (SMILES)	IC50 [1] [nM]	inhibitory activity against OVCAR3 tumor cells compared with Janssen-01 [1]	further results
Cc1csc([C@@H](C)Nc2ncc3c(n2)CN(C(=O)N[C@H](CN(C)C)c2ccccc2)[C@H](C)C3)n1 [Compound 2-2, (R)-N-((S)-2-(Dimethylamino)-1-phenylethyl)-6-methyl-2-(((R)-1-(4-methylthiazol-2-yl)ethyl)amino)-5,8-dihydropyrido[3,4-d]pyrimidine-7(6H)-carboxamide]	66	–	–
[2H]C([2H])([2H])N(C[C@@H](NC(=O)N1Cc2nc(N[C@H](C)c3nc(C)cs3)ncc2C[C@H]1C)c1ccccc1)C([2H])([2H])[2H] [Compound 3-2, (R)-N-((S)-2-(Bis(methyl-d3)amino)-1-phenylethyl)-6-methyl-2-(((R)-1-(4-methylthiazo 1-2-yl)ethyl)amino)-5,8-dihydropyrido[3,4-d]pyrimidine-7(6H)-carboxamide]	101	–	–
C[C@@H]1Cc2cnc(N[C@H](C)c3nc(C4CC4)cs3)nc2CN1C(=O)N[C@H](CN(C)C)c1ccccc1 [Compound 5, (R)-2-(((R)-1-(4-Cyclopropylthiazol-2-yl)ethyl)amino)-N-((S)-2-(dimethylamino)-1-phenylethyl)-6-methyl-5,8-dihydropyrido[3,4-d]pyrimidine-7(6H)-carboxamide]	17.5	–	–
[2H]C([2H])([2H])N(C[C@@H](NC(=O)N1Cc2nc(NCc3nc(C)cs3)ncc2C[C@H]1C)c1ccccc1)C([2H])([2H])[2H] [Compound 7]	11.2	–	–
[2H]C([2H])([2H])N(C[C@@H](NC(=O)N1Cc2nc(N[C@H](C)c3nc(C4CC4)cs3)ncc2C[C@H]1C)c1ccccc1)C([2H])([2H])[2H] [Compound 10, (R)-2-(((R)-1-(4-Cyclopropylthiazol-2-yl)ethyl)amino)-N-((S)-2-(bis(methyl-d3)amino)-1-phenylethyl)-6-methyl-5,8-dihydropyrido[3,4-d]pyrimidine-7(6H)-carboxamide]	19.3	–	–
C[C@@H]1Cc2cnc(N[C@H](C)c3nc(CO)cs3)nc2CN1C(=O)N[C@H](CN(C)C)c1ccccc1 [Compound 11-2, (R)-N-((S)-2-(Dimethylamino)-1-phenylethyl)-2-(((R)-1-(4-(hydroxymethyl)thiazol-2-yl)ethyl)amino)-6-methyl-5,8-dihydropyrido[3,4-d]pyrimidine-7(6H)-carboxamide]	190	–	–
C[C@@H]1Cc2cnc(NCc3ccn(C)n3)nc2CN1C(=O)[C@H]1CCN(C)C[C@@H]1c1ccccc1 [Janssen-01, reference compound]	22.2	–	–

Stronger by IC50 [1], values ahead:

IC50 [1] [nM]	Structure (SMILES)	inhibitory activity against OVCAR3 tumor cells compared with Janssen-01 [1]	further results
10.2	Cc1csc(CNc2ncc3c(n2)CN(C(=O)N[C@H](CN(C)C)c2ccccc2)[C@H](C)C3)n1 [Compound 1]	–	–
< 1.5	Cc1csc([C@H](C)Nc2ncc3c(n2)CN(C(=O)N[C@H](CN(C)C)c2ccccc2)[C@H](C)C3)n1 [Compound 2-1, (R)-N-((S)-2-(Dimethylamino)-1-phenylethyl)-6-methyl-2-(((S)-1-(4-methylthiazol-2-yl)ethyl)amino)-5,8-dihydropyrido[3,4-d]pyrimidine-7(6H)-carboxamide]	significantly better than that of the disclosed compound Janssen-01	IC50 (CDK6/CyclinD3): > 1000 nM; IC50 (CDK4/CyclinD1): > 1000 nM; IC50 (CDK2/CyclinE1): 711 nM; IC50 (CDK1/CyclinB): > 1000 nM; IC50 (CDK9/Cyclin T1): > 1000 nM; IC50 (CDK7/Cyclin H/MAT1): 0.96 nM
3.98	Cc1csc(C(C)Nc2ncc3c(n2)CN(C(=O)N[C@H](CN(C)C)c2ccccc2)[C@H](C)C3)n1 (stereo partly drawn) [Compound 2]	–	–
< 1.5	[2H]C([2H])([2H])N(C[C@@H](NC(=O)N1Cc2nc(N[C@@H](C)c3nc(C)cs3)ncc2C[C@H]1C)c1ccccc1)C([2H])([2H])[2H] [Compound 3-1, (R)-N-((S)-2-(Bis(methyl-d3)amino)-1-phenylethyl)-6-methyl-2-(((S)-1-(4-methylthiazo 1-2-yl)ethyl)amino)-5,8-dihydropyrido[3,4-d]pyrimidine-7(6H)-carboxamide]	significantly better than that of the disclosed compound Janssen-01	–
< 1.5	C[C@H](Nc1ncc2c(n1)CN(C(=O)N[C@H](CN(C)C)c1ccccc1)[C@H](C)C2)c1nc(C2CC2)cs1 [Compound 4, (R)-2-(((S)-1-(4-Cyclopropylthiazol-2-yl)ethyl)amino)-N-((S)-2-(dimethylamino)-1-phenylethyl)-6-methyl-5,8-dihydropyrido[3,4-d]pyrimidine-7(6H)-carboxamide]	significantly better than that of the disclosed compound Janssen-01	IC50 (CDK6/CyclinD3): > 1000 nM; IC50 (CDK4/CyclinD1): > 1000 nM; IC50 (CDK2/CyclinE1): 571 nM; IC50 (CDK1/CyclinB): > 1000 nM; IC50 (CDK9/Cyclin T1): > 1000 nM; IC50 (CDK7/Cyclin H/MAT1): 0.55 nM
10.7	C[C@@H]1Cc2cnc(NCc3nc(C4CC4)cs3)nc2CN1C(=O)N[C@H](CN(C)C)c1ccccc1 [Compound 6, (R)-2-(((4-Cyclopropylthiazol-2-yl)methyl)amino)-N-((S)-2-(dimethylamino)-1-phenylethyl)-6-methyl-5,8-dihydropyrido[3,4-d]pyrimidine-7(6H)-carboxamide]	–	–
9.89	[2H]C([2H])([2H])N(C[C@@H](NC(=O)N1Cc2nc(NCc3nc(C4CC4)cs3)ncc2C[C@H]1C)c1ccccc1)C([2H])([2H])[2H] [Compound 8, (R)-2-(((4-Cyclopropylthiazol-2-yl)methyl)amino)-N-((S)-2-(bis(methyl-d3)amino)-1-phenylethyl)-6-methyl-5,8-dihydropyrido[3,4-d]pyrimidine-7(6H)-carboxamide]	–	–
< 1.5	[2H]C([2H])([2H])N(C[C@@H](NC(=O)N1Cc2nc(N[C@@H](C)c3nc(C4CC4)cs3)ncc2C[C@H]1C)c1ccccc1)C([2H])([2H])[2H] [Compound 9, (R)-2-(((S)-1-(4-Cyclopropylthiazol-2-yl)ethyl)amino)-N-((S)-2-(bis(methyl-d3)amino)-1-phenylethyl)-6-methyl-5,8-dihydropyrido[3,4-d]pyrimidine-7(6H)-carboxamide]	significantly better than that of the disclosed compound Janssen-01	–
1.89	C[C@H](Nc1ncc2c(n1)CN(C(=O)N[C@H](CN(C)C)c1ccccc1)[C@H](C)C2)c1nc(CO)cs1 [Compound 11-1, (R)-N-((S)-2-(Dimethylamino)-1-phenylethyl)-2-(((S)-1-(4-(hydroxymethyl)thiazol-2-yl)ethyl)amino)-6-methyl-5,8-dihydropyrido[3,4-d]pyrimidine-7(6H)-carboxamide]	significantly better than that of the disclosed compound Janssen-01	–
